Structures are written as SMILES. Where two headings read alike, the source gives them in different places.

Assay [1] deals with GST-MCL-1 (Homo sapiens (Human), UniProt Q07820). Briefly: TR-FRET MCL-1 binding assay (competition with probe F-Bak). On the procedure:
For the assay, an acoustic dispenser was used to prepare dilution series from 10 mM test compounds in 100% DMSO and directly transfer 160 nL into low volume 384-well assay plates. 8 μL of a protein/probe/antibody mix was then added to each well resulting in final concentrations listed below: Test compound: 11 three-fold dilutions beginning at 25 μM
The samples were then mixed on a shaker for 1 minute and incubated for an additional 2 hours at room temperature. For each assay plate, a probe/antibody and protein/antibody/probe mixture were included as a negative and a positive control, respectively. Fluorescence was measured on the Envision (Perkin Elmer) using a 340/35 nm excitation filter and 520/525 (F-Bak) and 495/510 nm (Tb-labeled anti-his antibody) emission filters. […] The TR-FRET assay can be performed in the presence of varying concentrations of human serum (HS) or fetal bovine serum (FBS). Compounds were tested both without HS and in the presence of 10% HS.

The test system of assay [2] is AMO-1 human multiple myeloma tumor cell line. Briefly: AMO-1 cell viability assay (CellTiter-Glo). Type of assay: cell-based. Conditions: AMO1, read-out: AMO-1 Viability IC50 (μM), 10% FBS, 24 hours of compound treatment.
Assay [3] concerns NCI-H929 human multiple myeloma tumor cell line. Briefly: NCI-H929 cell viability assay (CellTiter-Glo). The class given is cell-based. As to conditions: NCI-H929, read-out: H929 Viability IC50 (μM), 10% FBS, 24 hours of compound treatment. On the technique in general: Cellular ATP, detected with luciferase, serves as a proxy for viable cell number.
Protocol: In one exemplary set of conditions, NCI-H929 or AMO-1 (ATCC. Manassas, Va.) were plated 4.000 cells per well in 384-well tissue culture plates (Corning. Corning, N.Y.) in a total volume of 25 μL RPMI tissue culture medium supplemented with 10% fetal bovine serum (Sigma-Aldrich, St. Louis, Mo.) and treated with a 3-fold serial dilution of the compounds of interest with a Labcyte Echo from a final concentration of 10 μM to 0.0005 μM. Each concentration was tested in duplicate at least 3 independent times. A luminescent signal proportional to the number of viable cells following 24 hours of compound treatment was determined using the CellTiter-Glo® Luminescent Cell Viability Assay according to the manufacturer's recommendations (Promega Corp., Madison, Wis.). The plates were read in a Perkin Elmer Envision using a Luminescence protocol. To generate dose response curves the data is normalized to percent viability by setting the averages of the staurosporine (10 uM) and DMSO only control wells to 0% and (00)% viability respectively. The IC50 values for the compounds are generated by fitting the normalized data with Accelrys Assay Explorer 3.3 to a sigmoidal curve model using linear regression.
[4] abbreviates: read-out: MCL-1 Binding Ki (nM, 10% HS), in the presence of 10% HS.
[5] abbreviates: without HS, read-out: MCL-1 Binding Ki.

GST-MCL-1, sequence (Q07820 whole entry): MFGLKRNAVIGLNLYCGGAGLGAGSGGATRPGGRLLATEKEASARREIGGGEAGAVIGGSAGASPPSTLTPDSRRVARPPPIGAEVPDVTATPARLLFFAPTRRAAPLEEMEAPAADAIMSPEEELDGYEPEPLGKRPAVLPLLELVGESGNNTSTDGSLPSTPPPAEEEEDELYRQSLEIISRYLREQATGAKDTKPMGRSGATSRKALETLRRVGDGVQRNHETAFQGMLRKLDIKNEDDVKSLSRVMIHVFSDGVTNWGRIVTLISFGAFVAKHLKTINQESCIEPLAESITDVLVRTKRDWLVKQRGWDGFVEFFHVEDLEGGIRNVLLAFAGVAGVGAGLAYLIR

Broadly, the Ki is the dissociation constant of the complex between target and ligand, obtained from inhibition or displacement. Usually IC50 stands for the concentration that gives 50% inhibition. `COc1ccccc1-c1nccc(COc2ccc3cc2C[C@H](C(=O)O)Oc2ncnc4sc(C5=COCCO5)c(c24)-c2c(C)c(Cl)c(c(Cl)c2C)O[C@H](CN2CCN(C)CC2)CO3)n1` [Example 27, (7R,16R)-19,23-dichloro-1-(5,6-dihydro-1,4-dioxin-2-yl)-10-{[2-(2-methoxyphenyl)pyrimidin-4-yl]methoxy}-20,22-dimethyl-16-[(4-methylpiperazin-1-yl)methyl]-7,8,15,16-tetrahydro-18,21-etheno-13,9-(metheno)-6,14,17-trioxa-2-thia-3,5-diazacyclononadeca[1,2,3-cd]indene-7-carboxylic acid]: the values for the Ki in assay [1] (setting [4]) and in assay [1] (setting [5]) were 0.02 nM and 0.008 nM, respectively. In addition, the IC50 amounted to 435 pM in assay [2] and 0.0015 µM in assay [3].
On the same counts, the results for `Cc1c(Cl)c2c(Cl)c(C)c1-c1c(-c3ccc(F)cc3)sc3ncnc(c13)O[C@@H](C(=O)O)Cc1cc(ccc1OCc1ccnc([C@H]3CC[C@](F)(COC[C@@H]4COCCO4)CC3)n1)OC[C@@H](CN1CCN(C)CC1)O2` [Example 28, (7R,16R)-19,23-dichloro-10-({2-[(1R,4s)-4-({[(2S)-1,4-dioxan-2-yl]methoxy}methyl)-4-fluorocyclohexyl]pyrimidin-4-yl}methoxy)-1-(4-fluorophenyl)-20,22-dimethyl-16-[(4-methylpiperazin-1-yl)methyl]-7,8,15,16-tetrahydro-18,21-etheno-13,9-(metheno)-6,14,17-trioxa-2-thia-3,5-diazacyclononadeca[1,2,3-cd]indene-7-carboxylic acid] are 0.18 nM, 0.017 nM, 211 pM and 0.000337 µM.
As for `Cc1c(Cl)c2c(Cl)c(C)c1-c1c(C3CCC3)sc3ncnc(c13)O[C@@H](C(=O)O)Cc1cc(ccc1OCc1ccnc([C@H]3CC[C@H](OCC4COCCO4)CC3)n1)OC[C@@H](CN1CCN(C)CC1)O2` (stereo partly drawn) [Example 29, (7R,16R)-19,23-dichloro-1-cyclobutyl-10-[(2-{(1r,4r)-4-[(1,4-dioxan-2-yl)methoxy]cyclohexyl}pyrimidin-4-yl)methoxy]-20,22-dimethyl-16-[(4-methylpiperazin-1-yl)methyl]-7,8,15,16-tetrahydro-18,21-etheno-13,9-(metheno)-6,14,17-trioxa-2-thia-3,5-diazacyclononadeca[1,2,3-cd]indene-7-carboxylic acid], the Ki turned out to be 0.55 nM in assay [1] (setting [4]) and 0.011 nM in assay [1] (setting [5]). In addition, the figures for the concentration for half-maximal inhibition (IC50) in assay [2] and in assay [3] were 81.2 pM and 0.000346 µM, respectively.
Regarding `Cc1c(Cl)c2c(Cl)c(C)c1-c1c(-c3ccc(F)cc3)sc3ncnc(c13)O[C@@H](C(=O)O)Cc1cc(ccc1OCc1ccnc(C3COCCOC3)n1)OC[C@@H](CN1CCN(C)CC1)O2` [Example 30, (7R,16R)-19,23-dichloro-10-{[2-(1,4-dioxepan-6-yl)pyrimidin-4-yl]methoxy}-1-(4-fluorophenyl)-20,22-dimethyl-16-[(4-methylpiperazin-1-yl)methyl]-7,8,15,16-tetrahydro-18,21-etheno-13,9-(metheno)-6,14,17-trioxa-2-thia-3,5-diazacyclononadeca[1,2,3-cd]indene-7-carboxylic acid], the results for the inhibition constant (Ki) in assay [1] (setting [4]) and in assay [1] (setting [5]) were 0.16 nM and 0.015 nM, respectively. For the same compound, the IC50 in assay [2] is 285 pM; in assay [3] it was 0.000974 µM.
With `Cc1c(Cl)c2c(Cl)c(C)c1-c1c(-c3ccc(F)cc3)sc3ncnc(c13)O[C@@H](C(=O)O)Cc1cc(ccc1OCc1cc(-c3ccc(OC[C@H]4COCCO4)cc3)ncn1)OC[C@@H](CN1CCN(C)CC1)O2` [Example 31, (7R,16R)-19,23-dichloro-10-{[6-(4-{[(2R)-1,4-dioxan-2-yl]methoxy}phenyl)pyrimidin-4-yl]methoxy}-1-(4-fluorophenyl)-20,22-dimethyl-16-[(4-methylpiperazin-1-yl)methyl]-7,8,15,16-tetrahydro-18,21-etheno-13,9-(metheno)-6,14,17-trioxa-2-thia-3,5-diazacyclononadeca[1,2,3-cd]indene-7-carboxylic acid], the Ki in assay [1] (setting [4]) amounted to 5.27 nM; in assay [1] (setting [5]), 0.373 nM. Besides, the 50% inhibitory concentration (IC50) in assay [2] stood at 4190 pM; in assay [3], 0.011 µM.
Take `Cc1c(Cl)c2c(Cl)c(C)c1-c1c(C3=CCCC3)sc3ncnc(c13)O[C@@H](C(=O)O)Cc1cc(ccc1OCc1ccnc([C@H]3CC[C@H](OCC4COCCO4)CC3)n1)OC[C@@H](CN1CCN(C)CC1)O2` (stereo partly drawn) [Example 32, (7R,16R)-19,23-dichloro-1-(cyclopent-1-en-1-yl)-10-[(2-{(1r,4r)-4-[(1,4-dioxan-2-yl)methoxy]cyclohexyl}pyrimidin-4-yl)methoxy]-20,22-dimethyl-16-[(4-methylpiperazin-1-yl)methyl]-7,8,15,16-tetrahydro-18,21-etheno-13,9-(metheno)-6,14,17-trioxa-2-thia-3,5-diazacyclononadeca[1,2,3-cd]indene-7-carboxylic acid]: the inhibition constant Ki in assay [1] (setting [4]) turned out to be 0.27 nM; in assay [1] (setting [5]), 0.022 nM. The IC50 is 170 pM in assay [2] and 0.000296 µM in assay [3].
With `Cc1c(Cl)c2c(Cl)c(C)c1-c1c(C3=CCCC3)sc3ncnc(c13)O[C@@H](C(=O)O)Cc1cc(ccc1OCc1ccnc([C@H]3CC[C@](F)(COC[C@@H]4COCCO4)CC3)n1)OC[C@@H](CN1CCN(C)CC1)O2` [Example 33, (7R,16R)-19,23-dichloro-1-(cyclopent-1-en-1-yl)-10-({2-[(1R,4s)-4-({[(2S)-1,4-dioxan-2-yl]methoxy}methyl)-4-fluorocyclohexyl]pyrimidin-4-yl}methoxy)-20,22-dimethyl-16-[(4-methylpiperazin-1-yl)methyl]-7,8,15,16-tetrahydro-18,21-etheno-13,9-(metheno)-6,14,17-trioxa-2-thia-3,5-diazacyclononadeca[1,2,3-cd]indene-7-carboxylic acid], the Ki in assay [1] (setting [4]) came to 0.3 nM; in assay [1] (setting [5]) it was 0.023 nM. Besides, the concentration for half-maximal inhibition (IC50) in assay [2] was found to be 222 pM; in assay [3], 0.000586 µM.
The corresponding values for `Cc1c(Cl)c2c(Cl)c(C)c1-c1c(C3=CCCC3)sc3ncnc(c13)O[C@@H](C(=O)O)Cc1cc(ccc1OCc1ccnc(C3=CC[C@](F)(COC[C@H]4COCCO4)CC3)n1)OC[C@@H](CN1CCN(C)CC1)O2` [Example 34, (7R,16R)-19,23-dichloro-1-(cyclopent-1-en-1-yl)-10-({2-[(4S)-4-({[(2R)-1,4-dioxan-2-yl]methoxy}methyl)-4-fluorocyclohex-1-en-1-yl]pyrimidin-4-yl}methoxy)-20,22-dimethyl-16-[(4-methylpiperazin-1-yl)methyl]-7,8,15,16-tetrahydro-18,21-etheno-13,9-(metheno)-6,14,17-trioxa-2-thia-3,5-diazacyclononadeca[1,2,3-cd]indene-7-carboxylic acid] are 0.54 nM, 0.03 nM, 235 pM and 0.001 µM.
Consider `Cc1c(Cl)c2c(Cl)c(C)c1-c1c(C3=CCCC3)sc3ncnc(c13)O[C@@H](C(=O)O)Cc1cc(ccc1OCc1ccnc(C3=CC[C@](F)(COC[C@@H]4COCCO4)CC3)n1)OC[C@@H](CN1CCN(C)CC1)O2` [Example 35, (7R,16R)-19,23-dichloro-1-(cyclopent-1-en-1-yl)-10-({2-[(4S)-4-({[(2S)-1,4-dioxan-2-yl]methoxy}methyl)-4-fluorocyclohex-1-en-1-yl]pyrimidin-4-yl}methoxy)-20,22-dimethyl-16-[(4-methylpiperazin-1-yl)methyl]-7,8,15,16-tetrahydro-18,21-etheno-13,9-(metheno)-6,14,17-trioxa-2-thia-3,5-diazacyclononadeca[1,2,3-cd]indene-7-carboxylic acid], for which the figures for the Ki in assay [1] (setting [4]) and in assay [1] (setting [5]) were 0.52 nM and 0.027 nM, respectively. The figures for the IC50 in assay [2] and in assay [3] were 261 pM and 0.00111 µM, respectively.
The corresponding values for `Cc1c(Cl)c2c(Cl)c(C)c1-c1c(-c3ccc(F)cc3)sc3ncnc(c13)O[C@@H](C(=O)O)Cc1cc(ccc1OCc1ccnc(-c3ccc(NC[C@H]4COCCO4)nc3)n1)OC[C@@H](CN1CCN(C)CC1)O2` [Example 36, (7R,16R)-19,23-dichloro-10-({2-[6-({[(2S)-1,4-dioxan-2-yl]methyl}amino)pyridin-3-yl]pyrimidin-4-yl}methoxy)-1-(4-fluorophenyl)-20,22-dimethyl-16-[(4-methylpiperazin-1-yl)methyl]-7,8,15,16-tetrahydro-18,21-etheno-13,9-(metheno)-6,14,17-trioxa-2-thia-3,5-diazacyclononadeca[1,2,3-cd]indene-7-carboxylic acid] are 0.05 nM, 0.001 nM, 48.8 pM and 0.000183 µM.
Take `Cc1c(Cl)c2c(Cl)c(C)c1-c1c(C3=CCCC3)sc3ncnc(c13)O[C@@H](C(=O)O)Cc1cc(ccc1OCc1ccnc([C@H]3CC[C@@](F)(COC[C@@H]4COCCO4)CC3)n1)OC[C@@H](CN1CCN(C)CC1)O2` [Example 37, (7R,16R)-19,23-dichloro-1-(cyclopent-1-en-1-yl)-10-({2-[(1S,4r)-4-({[(2S)-1,4-dioxan-2-yl]methoxy}methyl)-4-fluorocyclohexyl]pyrimidin-4-yl}methoxy)-20,22-dimethyl-16-[(4-methylpiperazin-1-yl)methyl]-7,8,15,16-tetrahydro-18,21-etheno-13,9-(metheno)-6,14,17-trioxa-2-thia-3,5-diazacyclononadeca[1,2,3-cd]indene-7-carboxylic acid]: the values for the inhibition constant (Ki) in assay [1] (setting [4]) and in assay [1] (setting [5]) were 0.63 nM and 0.051 nM, respectively. Also, the IC50 in assay [2] came out at 187 pM; in assay [3] it was 0.00053 µM.

The values are drawn from US10676485B2, “Macrocyclic MCL-1 inhibitors and methods of use” (AbbVie Inc., priority 2017, dated 2020).
